Calls of active or inactive are those of the source. The rule behind the calls is not given here.
Experiments:
[1] = Cytotoxicity against mouse RAW264.7 cells assessed as macrophage viability at 10 uM relative to control; type: toxicity, cell-based; conditions: read-out: Activity
BV-2 [2] = assay: Anti-inflammatory activity against mouse BV-2 cells assessed as inhibition of LPS-induced NO production at 10 uM pretreated for 2 hrs followed stimulated with LPS for 22 hrs by Griess reaction assay relative to control; type: functional; conditions: time 24 hrs
BV-2 [3] = assay: Anti-inflammatory activity against mouse BV-2 cells assessed as inhibition of LPS-induced NO production pretreated for 2 hrs followed stimulated with LPS for 22 hrs by Griess reaction assay; type: functional, cell-based
BV-2 [4] = assay: Anti-inflammatory activity against mouse BV-2 cells assessed as inhibition of LPS-induced TNFalpha production pretreated for 2 hrs followed stimulated with LPS for 22 hrs at 10 uM relative to control; type: functional; conditions: time 24 hrs
K562 [5] = assay: Anticancer activity against human K562 cells assessed as growth inhibition at 10 uM measured after 48 hrs by SRB assay relative to control; type: functional; conditions: read-out: GI
CCRF-CEM [6] = assay: Anticancer activity against human CCRF-CEM cells assessed as growth inhibition at 10 uM measured after 48 hrs by SRB assay relative to control; type: functional; conditions: read-out: GI
BV-2 [7] = assay: Anti-inflammatory activity against mouse BV-2 cells assessed as inhibition of LPS-induced PGE2 production pretreated for 2 hrs followed stimulated with LPS for 22 hrs; type: functional, cell-based
SR [8] = assay: Anticancer activity against human SR cells assessed as growth inhibition at 10 uM measured after 48 hrs by SRB assay relative to control; type: functional; conditions: read-out: GI
MOLT-4 [9] = assay: Anticancer activity against human MOLT-4 cells assessed as growth inhibition at 10 uM measured after 48 hrs by SRB assay relative to control; type: functional; conditions: read-out: GI
BV-2 [10] = assay: Anti-inflammatory activity against mouse BV-2 cells assessed as inhibition of LPS-induced TNFalpha production pretreated for 2 hrs followed stimulated with LPS for 22 hrs; type: functional, cell-based
RPMI-8226 [11] = assay: Anticancer activity against human RPMI-8226 cells assessed as growth inhibition at 10 uM measured after 48 hrs by SRB assay relative to control; type: functional; conditions: read-out: GI
BV-2 [12] = assay: Anti-inflammatory activity against mouse BV-2 cells assessed as inhibition of LPS-induced PGE2 production pretreated for 2 hrs followed stimulated with LPS for 22 hrs at 10 uM relative to control; type: functional; conditions: time 24 hrs
HL-60 [13] = assay: Anticancer activity against human HL-60 cells assessed as growth inhibition at 10 uM measured after 48 hrs by SRB assay relative to control; type: functional; conditions: for inhibition of growth at 10 µM: read-out: GI
K562 [14] = assay: Anticancer activity against human K562 cells assessed as growth inhibition measured after 48 hrs by SRB assay relative to control; type: functional
HL-60 [15] = assay: Anticancer activity against human HL-60 cells assessed as growth inhibition measured after 48 hrs by SRB assay relative to control; type: functional
MOLT-4 [16] = assay: Anticancer activity against human MOLT-4 cells assessed as growth inhibition measured after 48 hrs by SRB assay relative to control; type: functional
SR [17] = assay: Anticancer activity against human SR cells assessed as growth inhibition measured after 48 hrs by SRB assay relative to control; type: functional
CCRF-CEM [18] = assay: Anticancer activity against human CCRF-CEM cells assessed as growth inhibition measured after 48 hrs by SRB assay relative to control; type: functional
RPMI-8226 [19] = assay: Anticancer activity against human RPMI-8226 cells assessed as growth inhibition measured after 48 hrs by SRB assay relative to control; type: functional
[20] = Cytotoxicity against mouse RAW264.7 cells assessed as macrophage viability at 40 uM relative to control; type: toxicity, cell-based; conditions: read-out: Activity
BV-2 [21] = assay: Anti-inflammatory activity against mouse BV-2 cells assessed as inhibition of LPS-induced NO production at 40 uM pretreated for 2 hrs followed stimulated with LPS for 22 hrs by Griess reaction assay relative to control; type: functional; conditions: time 24 hrs

## COc1cccc(NC(=O)c2cccc(C3CC(=O)c4c(cc(OC)c(OC)c4OC)O3)c2)c1 (racemic)
[1]
  viability at 10 µM: 112%
BV-2 [2]
  inhibition at 10 µM: 21.9%

## COc1cc2c(c(OC)c1OC)C(=O)CC(c1cccc(NC(=O)c3ccc([N+](=O)[O-])cc3)c1)O2 (racemic)
BV-2 [3]
  IC50: 19.8 µM
BV-2 [4]
  inhibition at 10 µM: 54.6%
K562 [5]
  inhibition of growth at 10 µM: 64.6%
CCRF-CEM [6]
  inhibition of growth at 10 µM: 75.6%
BV-2 [7]
  IC50: 9.8 µM
SR [8]
  inhibition of growth at 10 µM: 73.8%
[1]
  viability at 10 µM: 104%
MOLT-4 [9]
  inhibition of growth at 10 µM: 84.2%
BV-2 [10]; time 24.0 hrs
  Activity: Dose-Dependent Effect
BV-2 [2]
  inhibition at 10 µM: 35.8%
RPMI-8226 [11]
  inhibition of growth at 10 µM: 66.6%
BV-2 [12]
  inhibition at 10 µM: 51.6%

## COc1cc2c(c(OC)c1OC)C(=O)CC(c1cccc(C(=O)Nc3ccccc3Br)c1)O2 (racemic)
[1]
  viability at 10 µM: 101%
BV-2 [2]
  inhibition at 10 µM: 9.4%

## COc1cc2c(c(OC)c1OC)C(=O)CC(c1cccc(NC(=O)c3ccccc3)c1)O2 (racemic)
[1]
  viability at 10 µM: 97%
BV-2 [2]
  inhibition at 10 µM: 23.5%

## COc1cccc(C(=O)Nc2cccc(C3CC(=O)c4c(cc(OC)c(OC)c4OC)O3)c2)c1 (racemic)
[1]
  viability at 10 µM: 98%
BV-2 [2]
  inhibition at 10 µM: 32.1%

## COc1cc2c(c(OC)c1OC)C(=O)CC(c1cccc(C(=O)Nc3ccncc3)c1)O2 (racemic)
[1]
  viability at 10 µM: 91.3%
BV-2 [2]
  inhibition at 10 µM: 16%

## COc1ccccc1NC(=O)c1cccc(C2CC(=O)c3c(cc(OC)c(OC)c3OC)O2)c1 (racemic)
[1]
  viability at 10 µM: 103%
BV-2 [2]
  inhibition at 10 µM: 19.7%

## COc1cc2c(c(OC)c1OC)C(=O)CC(c1cccc(C(=O)Nc3cccc(Cl)c3)c1)O2 (racemic)
[1]
  viability at 10 µM: 93.9%
BV-2 [2]
  inhibition at 10 µM: 24.6%

## COc1cc2c(c(OC)c1OC)C(=O)CC(c1cccc(C(=O)Nc3cccc(F)c3)c1)O2 (racemic)
[1]
  viability at 10 µM: 110%
BV-2 [2]
  inhibition at 10 µM: 25.8%

## COc1cc2c(c(OC)c1OC)C(=O)CC(c1cccc(C(=O)Nc3ccc(C#N)cc3)c1)O2 (racemic)
[1]
  viability at 10 µM: 122%
BV-2 [2]
  inhibition at 10 µM: 21.2%

## COc1ccc(NC(=O)c2cccc(C3CC(=O)c4c(cc(OC)c(OC)c4OC)O3)c2)cc1 (racemic)
[1]
  viability at 10 µM: 111%
BV-2 [2]
  inhibition at 10 µM: 28.6%

## COc1cc2c(c(OC)c1OC)C(=O)CC(c1cccc(C(=O)Nc3ccccc3)c1)O2 (racemic)
[1]
  viability at 10 µM: 110%
BV-2 [2]
  inhibition at 10 µM: 24.2%

## COc1cc2c(c(OC)c1OC)C(=O)CC(c1cccc(NC(=O)c3ccccc3Br)c1)O2 (racemic)
BV-2 [3]
  IC50: 13.3 µM
BV-2 [4]
  inhibition at 10 µM: 62.4%
K562 [5]
  inhibition of growth at 10 µM: 29.8%
CCRF-CEM [6]
  inhibition of growth at 10 µM: 26.9%
SR [8]
  inhibition of growth at 10 µM: 31.6%
[1]
  viability at 10 µM: 101%
MOLT-4 [9]
  inhibition of growth at 10 µM: 30.4%
BV-2 [10]
  IC50: 7.3 µM
BV-2 [2]
  inhibition at 10 µM: 41.4%
RPMI-8226 [11]
  inhibition of growth at 10 µM: 41.8%
BV-2 [12]
  inhibition at 10 µM: 39%

## COc1cc2c(c(OC)c1OC)C(=O)CC(c1cccc(C(=O)Nc3ccc(Br)cc3)c1)O2 (racemic)
BV-2 [3]
  IC50: 13.1 µM
BV-2 [4]
  inhibition at 10 µM: 24.9%
K562 [5]
  inhibition of growth at 10 µM: 93.8%
CCRF-CEM [6]
  inhibition of growth at 10 µM: 90.7%
BV-2 [7]
  IC50: 10.3 µM
HL-60 [13]
  inhibition of growth at 10 µM: 86.3%
SR [8]
  inhibition of growth at 10 µM: 77.8%
[1]
  viability at 10 µM: 113%
MOLT-4 [9]
  inhibition of growth at 10 µM: 101%
BV-2 [10]
  IC50: 16.8 µM
BV-2 [2]
  inhibition at 10 µM: 41.2%
RPMI-8226 [11]
  inhibition of growth at 10 µM: 85.4%
BV-2 [12]
  inhibition at 10 µM: 62.6%

## COc1cccc(CNC(=O)c2cccc(C3CC(=O)c4c(cc(OC)c(OC)c4OC)O3)c2)c1 (racemic)
[1]
  viability at 10 µM: 107%
BV-2 [2]
  inhibition at 10 µM: 24.7%

## COc1cc2c(c(OC)c1OC)C(=O)CC(c1cccc(NC(=O)c3ccc(C#N)cc3)c1)O2 (racemic)
[1]
  viability at 10 µM: 115%
BV-2 [2]
  inhibition at 10 µM: 26.8%

## COc1cc2c(c(OC)c1OC)C(=O)CC(c1cccc(C(=O)Nc3cccc(Br)c3)c1)O2 (racemic)
BV-2 [3]
  IC50: 11.7 µM
BV-2 [4]
  inhibition at 10 µM: 39.5%
K562 [5]
  inhibition of growth at 10 µM: 50.2%
CCRF-CEM [6]
  inhibition of growth at 10 µM: 55%
BV-2 [7]
  IC50: 10.9 µM
HL-60 [13]
  inhibition of growth at 10 µM: 8.2%
[1]
  viability at 10 µM: 97.9%
MOLT-4 [9]
  inhibition of growth at 10 µM: 51.2%
BV-2 [10]
  IC50: 15.5 µM
BV-2 [2]
  inhibition at 10 µM: 46.3%
RPMI-8226 [11]
  inhibition of growth at 10 µM: 53.2%
BV-2 [12]
  inhibition at 10 µM: 19.8%

## COc1cc2c(c(OC)c1OC)C(=O)CC(c1cccc(C(=O)Nc3cccc([N+](=O)[O-])c3)c1)O2 (racemic)
BV-2 [3]
  IC50: 14.7 µM
K562 [5]
  inhibition of growth at 10 µM: 63.5%
CCRF-CEM [6]
  inhibition of growth at 10 µM: 89.7%
BV-2 [7]
  IC50: 10.7 µM
HL-60 [13]
  inhibition of growth at 10 µM: 49.4%
SR [8]
  inhibition of growth at 10 µM: 66.2%
[1]
  viability at 10 µM: 111%
MOLT-4 [9]
  inhibition of growth at 10 µM: 77.2%
BV-2 [10]
  IC50: > 20 µM
BV-2 [2]
  inhibition at 10 µM: 42.7%
RPMI-8226 [11]
  inhibition of growth at 10 µM: 82.7%
BV-2 [12]
  inhibition at 10 µM: 31.4%

## COc1ccc(C(=O)Nc2cccc(C3CC(=O)c4c(cc(OC)c(OC)c4OC)O3)c2)cc1 (racemic)
[1]
  viability at 10 µM: 102%
BV-2 [2]
  inhibition at 10 µM: 15.2%

## COc1cc2c(c(OC)c1OC)C(=O)CC(c1cccc(NC(=O)c3cccc(Cl)c3)c1)O2 (racemic)
[1]
  viability at 10 µM: 100%
BV-2 [2]
  inhibition at 10 µM: 32.3%

## COc1cc2c(c(OC)c1OC)C(=O)CC(c1cccc(NC(=O)c3cccc(Br)c3)c1)O2 (racemic)
[1]
  viability at 10 µM: 105%
BV-2 [2]
  inhibition at 10 µM: 14.2%

## COc1cc2c(c(OC)c1OC)C(=O)CC(c1cccc(C(=O)Nc3cccnc3)c1)O2 (racemic)
[1]
  viability at 10 µM: 109%
BV-2 [2]
  inhibition at 10 µM: 10.5%

## COc1ccccc1C(=O)Nc1cccc(C2CC(=O)c3c(cc(OC)c(OC)c3OC)O2)c1 (racemic)
[1]
  viability at 10 µM: 103%
BV-2 [2]
  inhibition at 10 µM: 14.3%

## Cc1ccc(NC(=O)c2ccc(CN3CCN(C)CC3)cc2)cc1Nc1nccc(-c2cccnc2)n1 [IMATINIB]
K562 [14]
  GI50: 0.05 µM
HL-60 [15]
  GI50: 13.5 µM
MOLT-4 [16]
  GI50: 5.13 µM
SR [17]
  GI50: 7.24 µM
CCRF-CEM [6]
  inhibition of growth at 10 µM: 6.6%
CCRF-CEM [18]
  GI50: 17 µM
HL-60 [13]
  growth inhibition (GI): inactive
RPMI-8226 [19]
  GI50: 6.17 µM
SR [8]
  inhibition of growth at 10 µM: 14.6%
MOLT-4 [9]
  inhibition of growth at 10 µM: 18%
RPMI-8226 [11]
  inhibition of growth at 10 µM: 12.6%

## CC(=N)NCCCC[C@H](N)C(=O)O [L-NIL]
[20]
  viability at 40 µM: 106%
BV-2 [21]
  inhibition at 40 µM: 54.3%

— ChEMBL document CHEMBL5625164, “Design, synthesis, and evaluation of new anti-inflammatory natural products amide derivatives endowed with anti-blood cancer activity towards development of potential multifunctional agents against hematological cancers” (Eur J Med Chem, 2023)
